From patent US20230220010A1, “BROAD-SPECTRUM ANTIVIRAL PEPTIDES” (priority 2020, published 2023)
Ends that are not written are not given here.

Columns and labels:
HEK cells [1] = assay: Cytotoxicity with varying serum (FBS) concentrations, HEK cells; settings: 0-50% FBS
human adenovirus 5 = settings: read-out: EC50 against adenovirus (AdV); plaque assay
[2] = system: herpes simplex virus type 1; settings: read-out: EC50 against herpes simplex virus (HSV); plaque assay
dengue virus type 2 = settings: read-out: EC50 against dengue virus (DENV); plaque assay
[3] = system: Lassa pseudovirus (LASVpv); settings: 1 h
HEK cells [4] = assay: Cytotoxicity with varying cell densities, HEK cells; settings: 5×10^3 to 1×10^5 cells/well
Vero E6 cells = assay: Cytotoxicity assay, CELLTITER-GLO, Vero E6 cells; settings: peptide concentrations at or below 2 μM, about 72 hours

RRGWLLLRLLRLLLRLLWGRR-NH2 [AHR]
effect of serum concentration on cytotoxicity (HEK cells [1]): cytotoxic in all serum concentrations at high peptide concentrations | EC50 (human adenovirus 5): 1100 nM | EC50 [2]: 157 nM | EC50 (dengue virus type 2): 310 nM | EC50 [3]: < 10000 nM | inhibition of LASVpv at 50 μM peptide ([3]; 50 μM): approximately 100% | effect of cell density on cytotoxicity (HEK cells [4]): increases as cell density increases | cell viability, Vero E6 cells (Vero E6 cells): High cell viability
